The record followed here is PMC3997621 (The Journal of comparative neurology, 2014).

This assay concerns the target T1, InvD1L (invertebrate specific D1-like dopamine receptor) (Ixodes scapularis, UniProt A0ACM8DGL0).
T1 sequence (A0ACM8DGL0 1-457): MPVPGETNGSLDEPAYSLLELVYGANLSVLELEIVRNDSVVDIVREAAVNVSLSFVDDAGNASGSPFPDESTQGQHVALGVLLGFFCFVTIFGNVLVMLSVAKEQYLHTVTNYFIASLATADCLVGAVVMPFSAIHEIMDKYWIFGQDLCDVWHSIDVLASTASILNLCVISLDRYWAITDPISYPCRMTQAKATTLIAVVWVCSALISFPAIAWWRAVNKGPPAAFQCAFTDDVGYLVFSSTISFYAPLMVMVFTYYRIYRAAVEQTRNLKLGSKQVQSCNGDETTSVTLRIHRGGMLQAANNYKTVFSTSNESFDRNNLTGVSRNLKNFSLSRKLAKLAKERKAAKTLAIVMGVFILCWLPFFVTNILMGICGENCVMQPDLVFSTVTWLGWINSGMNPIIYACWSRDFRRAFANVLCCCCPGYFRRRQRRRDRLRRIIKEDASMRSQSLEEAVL
Briefly: cell-based.

The term EC50 denotes the concentration needed to bring the measured effect to its halfway point. A low value points to higher potency in that assay. As for `NCCc1ccc(O)c(O)c1` [DA, dopamine], the concentration giving a half-maximal response (EC50) amounted to 1340 nM.
